# Columns and labels:
# Experiment in all cases: normalized area under the dose-response curve (viability relative to DMSO control) (fraction); higher = less sensitive (more viable cells)
# Details in all cases: exposure time not given
# [1] = system: AMO1 (cancer type: MM)
# Description: (§1)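 25 myeloma and 15 non-Hodgkin lymphoma cell lines were exposed to each of 76 drugs as 7-point log dilutions (0.01 nM–10 µM) in duplicate. Viability was read with CellTiter-Glo and normalised to DMSO (0.1%) and staurosporine (10 µM) plate controls. Normalised AUC was calculated by the trapezoidal method relative to the negative control.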
# [2] = system: KMS12PE (cancer type: MM)
# Description: as §1
# [3] = system: L363 (cancer type: MM)
# Description: as §1
# [4] = system: OCI-MY7 (cancer type: MM)
# Description: as §1
# [5] = system: RPMI 8226 (cancer type: MM)
# Description: as §1
# [6] = system: KMS18 (cancer type: MM)
# Description: as §1
# [7] = system: XG2 (cancer type: MM)
# Description: as §1
# [8] = system: KMS34 (cancer type: MM)
# Description: as §1
# [9] = system: MM1.R (cancer type: MM)
# Description: as §1
# [10] = system: EJM (cancer type: MM)
# Description: as §1
# [11] = system: JeKo-1 (cancer type: Mantle)
# Description: as §1
# [12] = system: SU-DHL1 (cancer type: TCL)
# Description: as §1
# [13] = system: NCI-H929 (cancer type: MM)
# Description: as §1
# [14] = system: OPM2 (cancer type: MM)
# Description: as §1
# [15] = system: OCI-MY5/Vec (cancer type: MM)
# Description: as §1
# [16] = system: Granta-519 (cancer type: Mantle)
# Description: as §1
# [17] = system: KMS28PE (cancer type: MM)
# Description: as §1
# [18] = system: KMS26 (cancer type: MM)
# Description: as §1
# [19] = system: SR-786 (cancer type: TCL)
# Description: as §1
# [20] = system: OCI-MY5/CRBN (cancer type: MM)
# Description: as §1
# [21] = system: My-La (cancer type: TCL)
# Description: as §1
# [22] = system: JJN3 (cancer type: MM)
# Description: as §1
# [23] = system: FR4 (cancer type: MM)
# Description: as §1
# [24] = system: KMS28BM (cancer type: MM)
# Description: as §1
# [25] = system: OCI-LY3 (cancer type: DLBCL)
# Description: as §1
# [26] = system: Se-Ax (cancer type: TCL)
# Description: as §1
# [27] = system: SU-DHL2 (cancer type: DLBCL)
# Description: as §1
# [28] = system: JVM2 (cancer type: Mantle)
# Description: as §1
# [29] = system: Karpas-299 (cancer type: TCL)
# Description: as §1
# [30] = system: Mino (cancer type: Mantle)
# Description: as §1
# [31] = system: LP1 (cancer type: MM)
# Description: as §1
# [32] = system: U266 (cancer type: MM)
# Description: as §1
# [33] = system: SKMM2 (cancer type: MM)
# Description: as §1
# [34] = system: OCI-LY19 (cancer type: DLBCL)
# Description: as §1
# [35] = system: HuT 78 (cancer type: TCL)
# Description: as §1
# [36] = system: OCI-MY5 (cancer type: MM)
# Description: as §1
# [37] = system: KMS11 (cancer type: MM)
# Description: as §1
# [38] = system: OCI-LY1 (cancer type: DLBCL)
# Description: as §1
# [39] = system: SU-DHL6 (cancer type: DLBCL)
# Description: as §1
# [40] = system: MM1.S (cancer type: MM)
# Description: as §1
SMILES,normalized area under the dose-response curve [1],normalized area under the dose-response curve [2],normalized area under the dose-response curve [3],normalized area under the dose-response curve [4],normalized area under the dose-response curve [5],normalized area under the dose-response curve [6],normalized area under the dose-response curve [7],normalized area under the dose-response curve [8],normalized area under the dose-response curve [9],normalized area under the dose-response curve [10],normalized area under the dose-response curve [11],normalized area under the dose-response curve [12],normalized area under the dose-response curve [13],normalized area under the dose-response curve [14],normalized area under the dose-response curve [15],normalized area under the dose-response curve [16],normalized area under the dose-response curve [17],normalized area under the dose-response curve [18],normalized area under the dose-response curve [19],normalized area under the dose-response curve [20],normalized area under the dose-response curve [21],normalized area under the dose-response curve [22],normalized area under the dose-response curve [23],normalized area under the dose-response curve [24],normalized area under the dose-response curve [25],normalized area under the dose-response curve [26],normalized area under the dose-response curve [27],normalized area under the dose-response curve [28],normalized area under the dose-response curve [29],normalized area under the dose-response curve [30],normalized area under the dose-response curve [31],normalized area under the dose-response curve [32],normalized area under the dose-response curve [33],normalized area under the dose-response curve [34],normalized area under the dose-response curve [35],normalized area under the dose-response curve [36],normalized area under the dose-response curve [37],normalized area under the dose-response curve [38],normalized area under the dose-response curve [39],normalized area under the dose-response curve [40]
CCCS(=O)(=O)Nc1ccc(F)c(C(=O)c2c[nH]c3ncc(-c4ccc(Cl)cc4)cc23)c1F [Vemurafenib],0.808,0.91,0.898,0.94,0.975,0.938,1,0.765,0.97,0.902,0.971,0.867,0.79,0.936,0.998,0.957,0.998,0.965,0.98,0.958,0.976,0.784,0.825,1.28,0.951,0.673,0.972,0.924,0.969,0.917,0.89,0.8,0.994,0.912,0.964,0.788,0.909,0.933,0.92,0.95
CC1(C)CCC(CN2CCN(c3ccc(C(=O)NS(=O)(=O)c4ccc(NCC5CCOCC5)c([N+](=O)[O-])c4)c(Oc4cnc5[nH]ccc5c4)c3)CC2)=C(c2ccc(Cl)cc2)C1 [Venetoclax],0.64,0.09,0.584,0.14,0.481,0.514,0.846,0.525,0.48,0.615,0.686,0.696,0.82,0.371,0.0321,0.212,0.251,0.919,0.952,0.0571,0.872,0.354,0.617,0.119,0.179,0.196,0.982,0.73,0.829,0.876,0.817,0.366,0.0382,0.247,0.752,0.101,0.591,0.176,0.0483,0.57
CS(=O)(=O)c1ccc(C(=O)Nc2ccc(Cl)c(-c3ccccn3)c2)c(Cl)c1 [Vismodegib],0.871,0.94,0.859,0.94,0.889,0.995,0.867,0.801,0.88,0.901,0.878,0.807,0.87,0.932,0.922,0.924,0.871,0.838,0.858,0.942,0.873,0.906,1.02,0.948,0.939,0.765,0.94,0.819,0.895,0.911,0.906,0.896,1.01,0.827,0.9,0.826,0.93,0.967,0.864,0.85
O=C(CCCCCCC(=O)Nc1ccccc1)NO [Vorinostat],0.482,0.63,0.635,0.51,0.721,0.855,0.692,0.554,0.55,0.607,0.421,0.519,0.35,0.767,0.427,0.717,0.542,0.551,0.533,0.517,0.672,0.649,0.521,0.56,0.469,0.331,0.528,0.598,0.426,0.449,0.637,0.738,0.781,0.443,0.43,0.4,0.627,0.432,0.672,0.46
Cc1cccc(/C=N/Nc2cc(N3CCOCC3)n3nc(-c4ccncc4)cc3n2)c1 [apy0201],0.415,0.41,0.516,0.65,0.706,0.756,0.511,0.269,0.69,0.769,0.681,0.682,0.43,0.504,0.794,0.93,0.736,0.688,0.601,0.867,0.885,0.311,0.578,0.822,0.863,0.673,0.897,0.831,0.648,0.709,0.81,0.564,0.826,0.634,0.57,0.447,0.508,0.655,0.77,0.65
Cc1sc2c(c1C)C(c1ccc(Cl)cc1)=N[C@@H](CC(=O)OC(C)(C)C)c1nnc(C)n1-2 [jq1],0.48,0.65,0.529,0.39,0.616,0.813,0.747,0.501,0.55,0.703,0.684,0.674,0.53,0.671,0.57,0.899,0.647,0.475,0.647,0.645,0.747,0.57,0.613,0.78,0.707,0.566,0.635,0.564,0.661,0.598,0.65,0.852,0.672,0.679,0.566,0.488,0.654,0.812,0.829,0.53
Cc1sc2c(c1C)C(c1ccc(Cl)cc1)=N[C@@H](CC(=O)Nc1ccc(O)cc1)c1nnc(C)n1-2 [otx-015],0.497,0.59,0.545,0.4,0.642,0.713,0.622,0.514,0.61,0.685,0.84,0.729,0.54,0.7,0.563,0.902,0.681,0.395,0.695,0.641,0.796,0.568,0.732,0.801,0.759,0.657,0.558,0.609,0.628,0.595,0.701,0.62,0.657,0.637,0.859,0.491,0.656,0.752,0.757,0.56

# Source: the supplement of paper PMC7214452
